Measurements taken from patent publication US11357852B2, “Diglycosylated benzophenoxazine photosensitizer and preparation method and use thereof” (The Third Xiangya Hospital of Central South University, priority 2017, dated 2022).

Legend:
Assay type in all cases: cell-based
p-β-catenin = assay: Western Blot of β-catenin phosphorylation in A-431 cells; settings: 100 nM and 400 to 800 nM, 20 J/cm^2 red light 15 min, Western Blot (FIG. 5)
Source text: (§1) The Wnt signaling pathway mainly refers to a classic Wnt signaling pathway mediated by β-Catenin. In the absence of the Wnt signaling, GSK3β can add a phosphate group to the serine/threonine residue at the N-terminus of β-Catenin. The phosphorylated β-Catenin is covalently modified by β-TRCP ubiquitination and then degraded by a proteasome. […] Therefore, by measuring the phosphorylation statuses of GSK3β, β-Catenin and PP2A, we can directly understand whether the Wnt signaling is activated. C-myc and Cyclin D1 as protooncogenes can promote division and translation of the cells of cutaneous squamous cell carcinoma, and ultimately promote cell proliferation. By observing C-myc and Cyclin D1, we can clearly understand the inhibition effect of the photosensitizer of the present invention on proliferation of the A-431 cells. […]
(§2) A-431 cells at the logarithmic growth phase were digested with trypsin, and inoculated into a six-well culture plate, and cultured in a 5% CO2 incubator at 37° C. […] Respectively after 0.5 h and 16 h, the cells were collected to extract total protein, and the p-GSK3β, p-PP2A, p-β-catenin, C-myc, Cyclin D1 and β-Catenin in the cells were detected by the Western Blot method.

Cyclin D1 = assay: Western Blot of Cyclin D1 expression in A-431 cells; settings: Western Blot (FIG. 6)
Source text: as §1, §2

p-PP2A = assay: Western Blot of PP2A phosphorylation in A-431 cells; settings: 200 to 800 nM, 20 J/cm^2 red light 15 min, Western Blot (FIG. 5)
Source text: as §1, §2

β-Catenin = assay: Western Blot of β-Catenin expression in A-431 cells; settings: Western Blot (FIG. 6)
Source text: as §1, §2

C-myc = assay: Western Blot of C-myc expression in A-431 cells; settings: Western Blot (FIG. 6)
Source text: as §1, §2

A-431 cells = assay: MTT method, proliferation of A-431 cells after photosensitizer and red light irradiation
Method: The MTT method is a method for detecting cell survival and growth. The detection principle of it is that a succinate dehydrogenase in mitochondria of living cells can reduce exogenous MTTs to water-insoluble blue-violet crystalline formazan and deposit the formazan in the cells, while dead cells have no such function. Dimethyl sulfoxide (DMSO) can dissolve the formazan in the cells, and the light absorbance value of it is measured at 490 nm wavelength with an enzyme-linked immunometric meter, which can indirectly reflect the number of living cells.
The cell line A-431 of cutaneous squamous cell carcinoma was cultured in a DMEM medium that contained 10% calf serum, added with […] of penicillin and 100 mg/L of streptomycin, and placed in a constant-temperature incubator at 37° C. and containing 5% CO2 for conventional culture. After the cells grew to confluence on the bottom of the flask, the medium was discarded, the cells were rinsed twice with a PBS solution, and then digested with 0.25% trypsin and 0.02% EDTA for 5 minutes, and then subcultured into flasks once every 2 to 3 days. The cells at the logarithmic growth phase were taken for experiment.
A-431 cells at the logarithmic growth phase were digested with trypsin, and inoculated into a six-well culture plate, and cultured in a 5% CO2 incubator at 37° C. When grew to the confluence of 80%-90%, the cells were respectively added with distilled water and 100 nM, 200 nM, 400 nM, 600 nM and 800 nM of the diglycosylated benzophenoxazine photosensitizer referred in the present invention. After incubation for 1 h, the cells were irradiated with 20 J/cm^2 of red light for 15 min. 16 h later, the survival and growth status of the cells were detected by the MTT method.

p-GSK3β = assay: Western Blot of GSK3β phosphorylation in A-431 cells; settings: 200 to 800 nM, 20 J/cm^2 red light 15 min, Western Blot (FIG. 5)
Source text: as §1, §2

CCN(CC)CCC(C)(C[Se]N(CC)c1ccc2nc3c4ccccc4/c(=N\[Se]CC(C)(CN(CC)CC)ONC4C(O)C(O)C(CO)O[C@@H]4O)cc-3[se]c2c1)ONC1C(O)C(O)C(CO)O[C@@H]1O (stereo partly drawn)
phosphorylation of β-catenin (p-β-catenin): significantly promote | expression quantity of Cyclin D1 (Cyclin D1; 100 to 400 nM): increased slightly | expression quantity of Cyclin D1 (Cyclin D1; 600 and 800 nM): significantly decreased | phosphorylation of PP2A (p-PP2A): significantly inhibit | expression quantity of β-Catenin (β-Catenin; 100 to 400 nM): increased slightly | expression quantity of β-Catenin (β-Catenin; 600 and 800 nM): significantly decreased | expression quantity of C-myc (C-myc; 100 to 400 nM): increased slightly | expression quantity of C-myc (C-myc; 600 and 800 nM): significantly decreased | proliferation of A-431 cells (A-431 cells; 600 nM and 800 nM, concluded from Western Blot results (FIG. 6)): significantly inhibit | proliferation of the A-431 cells (A-431 cells; 100-800 nM, inhibition increases with dose, 20 J/cm^2 red light 15 min, MTT 16 h later): significantly inhibit | inhibition at 0.8 µM (A-431 cells; Homo sapiens, light or radiation study, 800 nM, A-431 cells, incubation 1 h, 20 J/cm^2 red light 15 min, MTT 16 h later, read-out: proliferation inhibition effect): 80% | phosphorylation of GSK3β (p-GSK3β): significantly inhibit
